Where “and” joins values, the source holds several entries; their conditions need not be identical. Equal values may be shown once. Results filed as inconclusive are left out.

The test system of this test is BDF1 mice, s.c. Lewis lung carcinoma, T/C %. Briefly: NCI In Vivo Anticancer Drug Screen. Data for tumor model Lewis Lung Carcinoma (subcutaneous) in B6D2F1 (BDF1) mice. In short, it runs like this:
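First, mice carry a transplantable tumor. Next, groups receive either compound or vehicle. Finally, survival or tumor dimensions in the dosed animals are divided by the corresponding control figure.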

The mark [1] stands for this setting: endpoint: mean tumor weight, dose: 1.0 mg/kg/injection, schedule: Q01DX011 (ip), vehicle: other, higher = larger tumour.
Where [2] appears, read: endpoint: mean tumor weight, dose: 2.0 mg/kg/injection, schedule: Q01DX011 (ip), vehicle: other, higher = larger tumour.
Where [3] appears, read: endpoint: mean tumor weight, dose: 4.0 mg/kg/injection, schedule: Q01DX011 (ip), vehicle: other, higher = larger tumour.
The mark [4] stands for this setting: endpoint: mean tumor weight, dose: 8.0 mg/kg/injection, schedule: Q01DX011 (ip), vehicle: other, higher = larger tumour.
The mark [5] stands for this setting: endpoint: mean tumor weight, dose: 133.0 mg/kg/injection, schedule: Q01DX011 (ip), vehicle: other, higher = larger tumour.
Where [6] appears, read: endpoint: mean tumor weight, dose: 200.0 mg/kg/injection, schedule: Q01DX011 (ip), vehicle: other, higher = larger tumour.

Regarding `CCCCn1cnc2c(=S)nc(N)[nH]c21`, the T/C runs as follows: under setting [1], 73 % of control; under setting [2], 59 % of control; under setting [3], 39 % of control; under setting [4], 58 % of control and 63 % of control; (endpoint: mean tumor weight, dose: 16.0 mg/kg/injection, schedule: Q01DX011 (ip), vehicle: other, higher = larger tumour) 61 % of control; (endpoint: mean tumor weight, dose: 32.0 mg/kg/injection, schedule: Q01DX011 (ip), vehicle: other, higher = larger tumour) 34 % of control.
For the compound `CO[C@H](C(=O)[C@@H](O)[C@@H](C)O)[C@@H]1Cc2cc3cc(OC4CC(OC5CC(O)C(O)C(C)O5)C(O)C(C)O4)c(C)c(O)c3c(O)c2C(=O)[C@H]1OC1CC(OC2CC(OC3CC(C)(O)C(O)C(C)O3)C(O)C(C)O2)C(O)C(C)O1` (some centres undefined), under “endpoint: median survival time, dose: 0.25 mg/kg/injection, schedule: Q01DX009 (ip), vehicle: saline, higher = longer survival”, the T/C is 116 % of control.
For `O=[N+]([O-])c1ccc(/C=N/c2ncc(Br)s2)o1`, the T/C is, setting by setting: (endpoint: median survival time, dose: 6.25 mg/kg/injection, schedule: Q01DX009 (ip), vehicle: Klucel (hydroxypropylcellulose) (HPC), higher = longer survival) 89 % of control; (endpoint: median survival time, dose: 12.5 mg/kg/injection, schedule: Q01DX009 (ip), vehicle: Klucel (hydroxypropylcellulose) (HPC), higher = longer survival) 109 % of control.
`CC(=O)O[C@H]1C(=O)[C@@]2(C)[C@H]([C@H](OC(=O)c3ccccc3)[C@]3(O)C[C@H](OC(=O)[C@H](O)[C@@H](NC(=O)c4ccccc4)c4ccccc4)C(C)=C1C3(C)C)[C@]1(OC(C)=O)CO[C@@H]1C[C@@H]2O`: the T/C was 112 % of control (endpoint: median survival time, dose: 4.0 mg/kg/injection, schedule: Q01DX009 (ip), vehicle: Klucel (hydroxypropylcellulose) (HPC), higher = longer survival); 109 % of control (endpoint: median survival time, dose: 6.0 mg/kg/injection, schedule: Q01DX009 (ip), vehicle: Klucel (hydroxypropylcellulose) (HPC), higher = longer survival); 94 % of control (endpoint: median survival time, dose: 11.0 mg/kg/injection, schedule: Q04DX003 (ip), vehicle: Klucel (hydroxypropylcellulose) (HPC), higher = longer survival); 107 % of control (endpoint: median survival time, dose: 13.0 mg/kg/injection, schedule: Q01DX001 (ip), vehicle: Klucel (hydroxypropylcellulose) (HPC), higher = longer survival); 109 % of control (endpoint: median survival time, dose: 16.0 mg/kg/injection, schedule: Q04DX003 (ip), vehicle: Klucel (hydroxypropylcellulose) (HPC), higher = longer survival); 99 % of control (endpoint: median survival time, dose: 20.0 mg/kg/injection, schedule: Q01DX001 (ip), vehicle: Klucel (hydroxypropylcellulose) (HPC), higher = longer survival). For the same compound, the T/C (endpoint: median survival time, dose: 30.0 mg/kg/injection, schedule: Q01DX001 (ip), vehicle: Klucel (hydroxypropylcellulose) (HPC), higher = longer survival) is 101 % of control.
As for `CC(C)[C@]1(O)CC[C@H]2[C@@H]3CCc4cc(O)ccc4[C@H]3CC[C@@]21C`, the T/C is, setting by setting: (endpoint: mean tumor weight, dose: 2.5 mg/kg/injection, schedule: Q01DX011 (sc), vehicle: saline, higher = larger tumour) 87 % of control; (endpoint: mean tumor weight, dose: 5.0 mg/kg/injection, schedule: Q01DX011 (sc), vehicle: saline, higher = larger tumour) 68 % of control; (endpoint: mean tumor weight, dose: 10.0 mg/kg/injection, schedule: Q01DX011 (sc), vehicle: saline, higher = larger tumour) 80 % of control; (endpoint: mean tumor weight, dose: 10.0 mg/kg/injection, schedule: Q01DX011 (sc), vehicle: steriod suspending solution, higher = larger tumour) 51 % of control; (endpoint: mean tumor weight, dose: 20.0 mg/kg/injection, schedule: Q01DX011 (sc), vehicle: steriod suspending solution, higher = larger tumour) 65 % of control; (endpoint: mean tumor weight, dose: 40.0 mg/kg/injection, schedule: Q01DX011 (sc), vehicle: steriod suspending solution, higher = larger tumour) 36 % of control. Besides, the T/C (endpoint: mean tumor weight, dose: 80.0 mg/kg/injection, schedule: Q01DX011 (sc), vehicle: steriod suspending solution, higher = larger tumour) is 55 % of control.
For `COc1ccccc1-c1cc(=O)c2ccc(OC)c(OC)c2o1`, the T/C was 99 % of control (endpoint: mean tumor weight, dose: 18.8 mg/kg/injection, schedule: Q01DX010 (ip), vehicle: saline, higher = larger tumour); 81 % of control (endpoint: mean tumor weight, dose: 37.5 mg/kg/injection, schedule: Q01DX010 (ip), vehicle: saline, higher = larger tumour); 108 % of control (endpoint: mean tumor weight, dose: 75.0 mg/kg/injection, schedule: Q01DX010 (ip), vehicle: saline, higher = larger tumour); 76 % of control (endpoint: mean tumor weight, dose: 150.0 mg/kg/injection, schedule: Q01DX010 (ip), vehicle: saline, higher = larger tumour).
Regarding `c1ccc2c3c(ccc2c1)Sc1ccc2ccccc2c1N3`, the T/C (endpoint: mean tumor weight, dose: 400.0 mg/kg/injection, schedule: Q01DX011 (ip), vehicle: other, higher = larger tumour) was 78 % of control; the T/C (endpoint: mean tumor weight, dose: 600.0 mg/kg/injection, schedule: Q01DX011 (ip), vehicle: other, higher = larger tumour) is 57 % of control; the T/C (endpoint: mean tumor weight, dose: 800.0 mg/kg/injection, schedule: Q01DX011 (ip), vehicle: other, higher = larger tumour) was 57 % of control.
As for `O=C1C=CC(=O)c2c(Cl)ccc(O)c21`, the T/C reads like this: (endpoint: median survival time, dose: 0.63 mg/kg/injection, schedule: Q01DX009 (ip), vehicle: Klucel (hydroxypropylcellulose) (HPC), higher = longer survival) 100 % of control; (endpoint: median survival time, dose: 1.25 mg/kg/injection, schedule: Q01DX009 (ip), vehicle: Klucel (hydroxypropylcellulose) (HPC), higher = longer survival) 104 % of control; (endpoint: median survival time, dose: 2.5 mg/kg/injection, schedule: Q01DX009 (ip), vehicle: Klucel (hydroxypropylcellulose) (HPC), higher = longer survival) 102 % of control; (endpoint: median survival time, dose: 5.0 mg/kg/injection, schedule: Q01DX009 (ip), vehicle: Klucel (hydroxypropylcellulose) (HPC), higher = longer survival) 98 % of control.
As to `CN1CC(=O)NC1=O`, the T/C (endpoint: mean tumor weight, dose: 2000.0 mg/kg/injection, schedule: Q01DX011 (ip), vehicle: saline, higher = larger tumour) was 99 % of control and 124 % of control.
Take `CCN(CC)CCNc1ccc(C)c2sc3ccccc3c(=O)c12`: the T/C is 62 % of control and 65 % of control (endpoint: mean tumor weight, dose: 20.0 mg/kg/injection, schedule: Q01DX011 (ip), vehicle: carboxymethylcellulose (CMC), higher = larger tumour); 51 % of control and 59 % of control (endpoint: mean tumor weight, dose: 40.0 mg/kg/injection, schedule: Q01DX011 (ip), vehicle: carboxymethylcellulose (CMC), higher = larger tumour); 16 % of control (endpoint: mean tumor weight, dose: 80.0 mg/kg/injection, schedule: Q01DX011 (ip), vehicle: carboxymethylcellulose (CMC), higher = larger tumour).
For `O=C(O)CSC1(SCC(=O)O)CCCCC1`, the T/C reads like this: under setting [5], 75 % of control; under setting [6], 77 % of control; (endpoint: mean tumor weight, dose: 300.0 mg/kg/injection, schedule: Q01DX011 (ip), vehicle: other, higher = larger tumour) 104 % of control; (endpoint: mean tumor weight, dose: 450.0 mg/kg/injection, schedule: Q01DX011 (ip), vehicle: other, higher = larger tumour) 86 % of control.
For the compound `CC1(C)C(CC(=O)O)CC1C(=O)O` (centres undefined), the T/C (endpoint: mean tumor weight, dose: 166.0 mg/kg/injection, schedule: Q01DX011 (ip), vehicle: other, higher = larger tumour) was 78 % of control.
Take `C=C(C)C12OC3(c4ccccc4)OC1C1C4OC4(CO)C(O)C4(O)C(=O)C(C)=CC4C1(O3)C(C)C2OC(=O)c1ccccc1` (centres undefined): the T/C (endpoint: median survival time, dose: 0.1 mg/kg/injection, schedule: Q01DX009 (ip), vehicle: saline, higher = longer survival) is 100 % of control; the T/C (endpoint: median survival time, dose: 0.2 mg/kg/injection, schedule: Q01DX009 (ip), vehicle: saline, higher = longer survival) is 100 % of control; the T/C (endpoint: median survival time, dose: 0.4 mg/kg/injection, schedule: Q01DX009 (ip), vehicle: saline, higher = longer survival) is 100 % of control; the T/C (endpoint: median survival time, dose: 0.8 mg/kg/injection, schedule: Q01DX009 (ip), vehicle: saline, higher = longer survival) is 94 % of control.
For the compound `CC(C)([NH-])CO.CC(C)([NH-])CO.[Cl][Cd][Cl]`, the T/C was 122 % of control under setting [1], 77 % of control under setting [2], 75 % of control under setting [3] and 97 % of control under setting [4].
For the compound `CS(=O)(=O)c1ccccc1`, the T/C is, setting by setting: (endpoint: mean tumor weight, dose: 58.0 mg/kg/injection, schedule: Q01DX011 (ip), vehicle: other, higher = larger tumour) 99 % of control; (endpoint: mean tumor weight, dose: 88.0 mg/kg/injection, schedule: Q01DX011 (ip), vehicle: other, higher = larger tumour) 103 % of control; under setting [5], 83 % of control; under setting [6], 79 % of control; (endpoint: mean tumor weight, dose: 250.0 mg/kg/injection, schedule: Q01DX011 (ip), vehicle: other, higher = larger tumour) 77 % of control; (endpoint: mean tumor weight, dose: 500.0 mg/kg/injection, schedule: Q01DX011 (ip), vehicle: other, higher = larger tumour) 80 % of control. Also, the T/C was 76 % of control (endpoint: mean tumor weight, dose: 750.0 mg/kg/injection, schedule: Q01DX011 (ip), vehicle: other, higher = larger tumour) and 93 % of control (endpoint: mean tumor weight, dose: 1000.0 mg/kg/injection, schedule: Q01DX011 (ip), vehicle: other, higher = larger tumour).
Consider `O=c1[nH]cnc2n[nH]nc12`, for which the T/C reads like this: (endpoint: mean tumor weight, dose: 49.0 mg/kg/injection, schedule: Q01DX011 (ip), vehicle: other, higher = larger tumour) 76 % of control; (endpoint: mean tumor weight, dose: 98.0 mg/kg/injection, schedule: Q01DX011 (ip), vehicle: other, higher = larger tumour) 64 % of control; (endpoint: mean tumor weight, dose: 147.0 mg/kg/injection, schedule: Q01DX011 (ip), vehicle: other, higher = larger tumour) 55 % of control; (endpoint: mean tumor weight, dose: 220.0 mg/kg/injection, schedule: Q01DX011 (ip), vehicle: other, higher = larger tumour) 67 % of control.
As to `Cc1nc(N)c(C)c(C(=O)O)n1`, the T/C runs as follows: (endpoint: median survival time, dose: 50.0 mg/kg/injection, schedule: Q01DX009 (ip), vehicle: water, higher = longer survival) 113 % of control; (endpoint: median survival time, dose: 100.0 mg/kg/injection, schedule: Q01DX009 (ip), vehicle: water, higher = longer survival) 117 % of control; (endpoint: median survival time, dose: 200.0 mg/kg/injection, schedule: Q01DX009 (ip), vehicle: water, higher = longer survival) 116 % of control.
With `CCNCc1cc(Nc2cc(C)nc(/N=C(\N)Nc3ccc(Cl)c(Cl)c3)n2)ccc1OC`, the T/C is, setting by setting: (endpoint: median survival time, dose: 0.8 mg/kg/injection, schedule: Q01DX009 (ip), vehicle: Klucel (hydroxypropylcellulose) (HPC), higher = longer survival) 96 % of control; (endpoint: median survival time, dose: 1.56 mg/kg/injection, schedule: Q01DX009 (ip), vehicle: Klucel (hydroxypropylcellulose) (HPC), higher = longer survival) 100 % of control; (endpoint: median survival time, dose: 3.12 mg/kg/injection, schedule: Q01DX009 (ip), vehicle: Klucel (hydroxypropylcellulose) (HPC), higher = longer survival) 96 % of control.

For the origin of these results see PubChem BioAssay AID270 (DTP/NCI, 2004).
